Values joined by “and” are separate entries in the source; they are usually repeats but may differ in a detail not shown here. Identical values can stand only once. Inconclusive results and toxic doses are left out. How the source made its calls: active means survival T/C of 150% or more; inactive means T/C below 125% in these data.
Tested on: P388 leukemia ip, CD2F1 mice, survival T/C
Assay: NCI In Vivo Anticancer Drug Screen. Data for tumor model P388 Leukemia (intraperitoneal) in CD2F1 (CDF1) mice
Details: endpoint: median survival time, higher = longer survival
Procedure, shortened: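 Mice carrying the transplanted tumor received test compound or vehicle. Survival was recorded in each group, and the value is the treated-group measurement divided by that of the vehicle-treated control group.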

[1] = dose: 50.0 mg/kg/injection, schedule: Q01DX009 (ip), vehicle: saline with Tween-80
[2] = dose: 100.0 mg/kg/injection, schedule: Q01DX009 (ip), vehicle: saline with Tween-80
[3] = dose: 200.0 mg/kg/injection, schedule: Q01DX009 (ip), vehicle: saline with Tween-80
[4] = dose: 400.0 mg/kg/injection, schedule: Q01DX009 (ip), vehicle: saline with Tween-80

Measured: T/C

Cc1ncc([N+](=O)[O-])n1CCO
inactive: dose: 16.0 mg/kg/injection, schedule: Q01DX009 (ip), vehicle: saline with Tween-80 112 % of control | dose: 32.0 mg/kg/injection, schedule: Q01DX009 (ip), vehicle: saline with Tween-80 108 % of control | [1] 98 % of control | dose: 64.0 mg/kg/injection, schedule: Q01DX009 (ip), vehicle: saline with Tween-80 102 % of control and 108 % of control | [2] 118 % of control | dose: 128.0 mg/kg/injection, schedule: Q01DX009 (ip), vehicle: saline with Tween-80 100 % of control and 109 % of control | [3] 107 % of control | dose: 250.0 mg/kg/injection, schedule: Q01DX001 (ip), vehicle: saline with Tween-80 103 % of control | dose: 256.0 mg/kg/injection, schedule: Q01DX009 (ip), vehicle: saline with Tween-80 108 % of control | dose: 360.0 mg/kg/injection, schedule: Q01DX001 (ip), vehicle: saline with Tween-80 100 % of control and 103 % of control | [4] 111 % of control | dose: 500.0 mg/kg/injection, schedule: Q01DX001 (ip), vehicle: saline with Tween-80 103 % of control | dose: 512.0 mg/kg/injection, schedule: Q01DX009 (ip), vehicle: saline with Tween-80 100 % of control | dose: 600.0 mg/kg/injection, schedule: Q01DX001 (ip), vehicle: saline with Tween-80 100 % of control and 97 % of control | dose: 1000.0 mg/kg/injection, schedule: Q01DX001 (ip), vehicle: saline with Tween-80 102 % of control and 104 % of control and 101 % of control | dose: 2000.0 mg/kg/injection, schedule: Q01DX001 (ip), vehicle: saline with Tween-80 99 % of control

CC(C)(C)c1nnc2cccc(Cl)n12
inactive: dose: 100.0 mg/kg/injection, schedule: Q01DX001 (ip), vehicle: Klucel (hydroxypropylcellulose) (HPC) 100 % of control | dose: 200.0 mg/kg/injection, schedule: Q01DX001 (ip), vehicle: Klucel (hydroxypropylcellulose) (HPC) 99 % of control | dose: 400.0 mg/kg/injection, schedule: Q01DX001 (ip), vehicle: Klucel (hydroxypropylcellulose) (HPC) 103 % of control

Cc1cc2c(cc1C)NC1C(=O)C(c3ccccc3Cl)OC1=N2 (centres undefined)
inactive: dose: 50.0 mg/kg/injection, schedule: Q01DX005 (ip), vehicle: Klucel + Tween-80 92 % of control | dose: 100.0 mg/kg/injection, schedule: Q01DX005 (ip), vehicle: Klucel + Tween-80 94 % of control | dose: 200.0 mg/kg/injection, schedule: Q01DX005 (ip), vehicle: Klucel + Tween-80 91 % of control

CC(CN=C(CC(=O)c1ccccc1)c1ccccc1)N=C(CC(=O)c1ccccc1)c1ccccc1 (centres undefined)
inactive: [1] 104 % of control | [2] 103 % of control | [3] 97 % of control

COC1OC2COC(c3ccccc3)OC2C(O)C1O (centres undefined)
inactive: [1] 100 % of control | [2] 107 % of control | [3] 105 % of control | [4] 107 % of control
